Measured values reported in US5336684A, “Oxidation products of cephalomannine” (Hauser Chemical Research, Inc., priority 1993, dated 1994).
Converted amounts (≈) assume the structure as drawn. “And” between values parts separate entries of the source, which are not always exact repeats. Identical values can stand only once. Like-named read-outs stand apart in the source and are kept apart here.

Legend:
Tubulin [1] = assay: Tubulin Assembly; assay type: biochemical, bovine; details: for Tubulin Assembly ED50/ED50 Taxol: ratio to taxol, <1 indicates greater activity than taxol; for Tubulin Assembly ED50 (concentration which reduces the supernatant protein concentration by 50%): tubulin 1 mg/ml, 37° C., 15 minutes, PEM buffer pH 6.9
Text: (§1) Tubulin binding and cytotoxicity data for cephalomannine and the synthetic derivatives described herein are included for comparison. The tubulin testing was done exactly as described by Himes (Georg, G. I., et al., "Synthesis of Biologically Active Taxol Analogues with Modified Phenylisoserine Side Chains", J. Med. Chem. Vol 35:4230, (1992)), incorporated herein by reference. Taxol has been included in Table 1 for reference. […] A number less than 1 in these columns indicates greater activity than taxol. A number greater than 1 in these columns indicates lower activity than taxol. The error in the tests appears to be ±10-20%. […] These tests have been used and relied upon by experimentalists in this field to determine the potential efficacy of a taxol derivative for the treatment of cancer.
Tubulin free of microtubule-associated proteins was purified from bovine brain as previously described (Algaier, J., Himes, R. H., "The Effect of Dimethyl Sulfoxide on the Kinetics of Tubulin Assembly" Biochim. Biophys. Acta, Vol 954, pp 235-243, 1988). The assembly reaction was done at 37° C. in PEM buffer (0.1M Pipes, pH 6.9, 1 mM EGTA, and 1 mM MgSO4) at a protein concentration of 1 mg/ml (10 μM) in the presence of taxol or taxol analogues and 0.5 mM GTP. The reaction was monitored by the increase in the apparent absorbance at 350 nm.
^b Tubulin at 1 mg/ml was incubated with various concentrations of th
compounds at 37° C. for 15 minutes in 0.5 ml of PEM buffer (0.1 M
Pipes, 1 mM EGTA, 1 mM MgSO4, pH 6.9). Samples were centrifuged and
the protein concentration on the supernatant was determined.
^d The concentration in ng/ml which reduces the supernatant protein

B16 Melanoma cells = assay: cells; assay type: cell-based; details: for IC50: Mus musculus; for B16 Proliferation ED50/ED50 Taxol: ratio to taxol, <1 indicates greater activity than taxol
Text: as §1
Cells were seeded in 24-well plates at 7.5×10^4 cells/well and grown in Dulbecco's modified minimal essential medium (MEM) containing 10% bovine calf serum at 37° C. for 24 hours in a 97% humidified atmosphere of 5.5% CO2. The medium was then replaced with fresh medium containing taxol or its derivatives and dissolved in DMSO in concentrations ranging from 7.5×10^-9 M to 1×10^-7 M for taxol and other derivatives. The final concentration of DMSO in the cell medium was 0.5% or less. […] After 40 hours, the cells were released by trypsinization and counted in a Coulter counter.
^c B16 Melanoma cells were incubated with various concentrations of
the compounds for about 40h at 37° C.
^e The concentration in ng/ml which reduces the number of cells by 50

tubulin [2] = details: compared with taxol, cited from earlier work
[3] = test system: mouse macrophage-like J774.2 cells; details: compared with taxol; cited from earlier work
[4] = test system: P388 murine leukemia cells; details: compared with taxol; cited from earlier work
[5] = test system: taxol resistant tumor cells; details: compared with taxol; cited from earlier work
tubulin [6] = details: Schiff et al. 1979; cited from earlier work
cell = details: when delivered to the cell; cited from earlier work
[7] = B16, 40 h, B16 melanoma cells, about 40h at 37° C., read-out: B16 Proliferation ED50 (concentration which reduces the number of cells by 50% compared to a control)

SMILES	Tubulin Assembly ED50/ED50 Taxol (Tubulin [1])	Tubulin Assembly ED50 (concentration which reduces the supernatant protein concentration by 50%) (Tubulin [1]) [µg/mL]	IC50 (B16 Melanoma cells; [7]) [µg/mL]	B16 Proliferation ED50/ED50 Taxol (B16 Melanoma cells)	other results
CC(=O)O[C@H]1C(=O)[C@]2(C)[C@@H](OC(C)=O)C[C@H]3OC[C@@]3(OC(C)=O)[C@H]2[C@H](OC(=O)c2ccccc2)[C@]2(O)C[C@H](OC(=O)[C@H](OC(C)=O)[C@@H](NC(=O)C(C)=O)c3ccccc3)C(C)=C1C2(C)C [Compound 6, 2',7-bis(acetyl)-α-ketoamide]	> 10	> 8.54	> 0.854	> 38	
CC(=O)O[C@H]1C(=O)[C@@]2(C)[C@H]([C@H](OC(=O)c3ccccc3)[C@]3(O)C[C@H](OC(=O)[C@H](O)[C@@H](NC(=O)C(C)=O)c4ccccc4)C(C)=C1C3(C)C)[C@]1(OC(C)=O)CO[C@@H]1C[C@@H]2O [Compound 4ab]	1.46	1.24	0.0171 (≈ 0.0209 µM)	0.75	activity in the in vitro tubulin assembly test relative to taxol (Tubulin [1]; compared to taxol): comparable to or superior to taxol; tubulin binding activity (Tubulin [1]; in vitro testing): good; activity in the B16 Proliferation test relative to taxol (B16 Melanoma cells; compared to taxol): comparable to or superior to taxol; cytotoxicity activity (B16 Melanoma cells; in vitro testing): good
CC(=O)O[C@@]12CO[C@@H]1C[C@H](O)[C@@]1(C)C(=O)[C@H](O)C3=C(C)[C@@H](OC(=O)[C@H](O)[C@@H](NC(=O)OC(C)(C)C)c4ccccc4)C[C@@](O)([C@@H](OC(=O)c4ccccc4)[C@H]21)C3(C)C [Compound 2, taxotere]					activity as a promoter of tubulin polymerization vs taxol (tubulin [2]): slightly more active; in vitro tubulin binding activity of taxotere (tubulin [2]; in vitro): enhanced in vitro tubulin binding activity; potency as an inhibitor of replication vs taxol, J774.2 cells [3]: 1.5 fold; potency as an inhibitor of replication vs taxol, P388 cells [4]: 1.5 fold; potency in taxol resistant tumor cells vs taxol [5]: at least fivefold more potent
CC(=O)O[C@H]1C(=O)[C@@]2(C)[C@H]([C@H](OC(=O)c3ccccc3)[C@]3(O)C[C@H](OC(=O)[C@H](OC(C)=O)[C@@H](NC(=O)C(C)=O)c4ccccc4)C(C)=C1C3(C)C)[C@]1(OC(C)=O)CO[C@@H]1C[C@@H]2O [Compound 5, 240 -Acetyl-α-ketoamide]	> 10	> 8.54		> 38	IC50 (B16 Melanoma cells; B16 melanoma cells, about 40h at 37° C., read-out: B16 Proliferation ED50 (concentration which reduces the number of cells by 50% compared to a control)): > 0.854 µg/mL
CC(=O)O[C@H]1C(=O)[C@@]2(C)[C@H]([C@H](OC(=O)c3ccccc3)[C@]3(O)C[C@H](OC(=O)[C@H](O)[C@@H](NC(=O)c4ccccc4)c4ccccc4)C(C)=C1C3(C)C)[C@]1(OC(C)=O)CO[C@@H]1C[C@@H]2O [Compound 1, taxol, reference compound]	1.26		0.0214 (≈ 0.0251 µM)	0.95	Tubulin Assembly ED50/ED50 Taxol (Tubulin [1]; listed as taxol): approximately 1; ED50 for taxol in the assembly assay (Tubulin [1]; taxol reference value for the ratios (footnotes g, h, i), 15 min): 0.854 µg/mL and 0.97 µg/mL and 0.85 µg/mL; IC50 (B16 Melanoma cells; B16, 40 h, taxol reference value for the ratios (footnotes g, h, i), read-out: ED50 for taxol in the B16 assay): 0.0225 µg/mL; ED50 for taxol in the B16 assay (B16 Melanoma cells; taxol reference value for the ratios (footnotes g, h, i), 2400 min): 0.0227 µg/mL; tubulin binding (tubulin [6]): significant tubulin binding; cytotoxic activity (cell): cytotoxic activity
CC[Si](CC)(CC)O[C@H]1C[C@H]2OC[C@@]2(OC(C)=O)[C@H]2[C@H](OC(=O)c3ccccc3)[C@]3(O)C[C@H](OC(=O)[C@H](O[Si](CC)(CC)CC)[C@@H](NC(=O)C(C)=O)c4ccccc4)C(C)=C([C@@H](OC(C)=O)C(=O)[C@]12C)C3(C)C [Compound 7, 2',7-Bis(triethylsilyl)-α-ketoamide]	> 10	> 8.54	> 8.54	> 380	
CC(=O)O[C@H]1C(=O)[C@@]2(C)[C@H]([C@H](OC(=O)c3ccccc3)[C@]3(O)C[C@H](OC(=O)[C@H](O)[C@@H](NC(=O)C(C)(O)C(C)O)c4ccccc4)C(C)=C1C3(C)C)[C@]1(OC(C)=O)CO[C@@H]1C[C@@H]2O (some centres unmarked) [Compound 8, Cephalomannine diol]	3.4	3.3	> 0.854	> 38	
C/C=C(\C)C(=O)N[C@@H](c1ccccc1)[C@@H](O)C(=O)O[C@H]1C[C@@]2(O)[C@@H](OC(=O)c3ccccc3)[C@@H]3[C@]4(OC(C)=O)CO[C@@H]4C[C@H](O)[C@@]3(C)C(=O)[C@H](OC(C)=O)C(=C1C)C2(C)C [Compound 3, cephalomannine]	0.82			1.49	IC50 (B16 Melanoma cells; B16, 40 h, read-out: B16 Proliferation ED50 (concentration which reduces the number of cells by 50% compared to a control)): 0.0335 µg/mL (≈ 0.0403 µM)
